Measurements: patent US11873496B2, “Methods of altering gene expression by perturbing transcription factor multimers that structure regulatory loops” (Whitehead Institute for Biomedical Research, priority 2017, dated 2024)

Legend:
[1] = target: T1, FKBP degron-tagged YY1 protein (Mus musculus, UniProt Q00899+Q8C7D2); test: dTAG inducible degradation of FKBP tagged YY1 (western blot); format: cell-based
T1 construct: A clonal homozygous knock-in line expressing FKBP tagged YY1 was used for the degradation experiments; endogenous in cells; host or cells: V6.5 mES cells, clonal homozygous knock-in (repair plasmids pAW62.YY1.FKBP.knock-in.mCherry and pAW63.YY1.FKBP.knock-in.BFP)
Description: For the generation of the endogenously tagged lines, five hundred thousand mES cells were transfected with 2.5 ug Cas9 plasmid and 1.25 ug non-linearized repair plasmid 1 (pAW62.YY1.FKBP.knock-in.mCherry) and 1.25 ug non-linearized repair plasmid 2 (pAW63.YY1.FKBP.knock-in.BFP). Cells were sorted after 48 hours for the presence of GFP. Cells were expanded for five days and then sorted again for double positive mCherry and BFP cells. Thirty thousand mCherry+/BFP+ sorted cells were plated in a six-well plate in a 1:2 serial dilution (first well 15,000 cells, second well 7,500 cells, etc). The cells were grown for approximately one week in 2i medium and then individual colonies were picked using a stereoscope into a 96-well plate. Cells were expanded and genotyped by PCR (YY1_gPCR_3F/3R, Table S3). Clones with a homozygous knock-in tag were further expanded and used for experiments.
A clonal homozygous knock-in line expressing FKBP tagged YY1 was used for the degradation experiments. Cells were grown two passages off MEFs and then treated with dTAG-47 at a concentration of 500 nM for 24 hours.
The homozygous knock-in line expressing FKBP tagged YY1 was cultured on 2i+LIF media. Cells were treated with dTAG-47 at a concentration of 500 nM for 24 hours. After 24 hours of drug treatment, cells were washed three times with PBS and passaged onto a new plate. […]

[2] = system: YY1-YY1 enhancer-promoter interactions; test: H3K27ac HiChIP of enhancer-promoter interactions after YY1 degradation and washout; format: cell-based, mouse; details: mES cells
Description: HiChIP was performed as described in (Mumbach et al., 2016) with a few modifications. Ten million cells cross-linked for 10 min at room temperature with 1% formaldehyde in growth media and quenched in 0.125 M glycine. After washing twice with ice-cold PBS, the supernatant was aspirated and the cell pellet was flash frozen in liquid nitrogen and stored at −80° C.
Cross-linked cell pellets were thawed on ice, resuspended in 800 μL of ice-cold Hi-C lysis buffer (10 mM Tris-HCl pH 8.0, 10 mM NaCl, and 0.2% IGEPAL CA-630 with 1× cOmplete protease inhibitor (Roche, 11697498001)), and incubated at 4° C. for 30 minutes with rotation. Nuclei were pelleted by centrifugation at 2500 rcf for 5 min at 4° C. and washed once with 500 μL of ice-cold Hi-C lysis buffer. After removing supernatant, nuclei were resuspended in 100 μL of 0.5% SDS and incubated at 62° C. for 10 minutes. SDS was quenched by adding 335 μL of 1.5% Triton X-100 and incubating for 15 minutes at 37° C. After the addition of 50 μL of 10×NEB Buffer 2 (NEB, B7002) and 375 U of MboI restriction enzyme (NEB, R0147), chromatin was digested at 37° C. for 2 hours with rotation. Following digestion, MboI enzyme was heat inactivated by incubating the nuclei at 62° C. for 20 min. […]

HA-tagged YY1 = test: co-immunoprecipitation from nuclear extract treated with RNase A before IP with anti-tag antibodies, western blot quantification
[3] = system: linear DNA template containing YY1 binding sites; test: In vitro DNA circularization assay (T4 DNA ligase); format: biochemical; details: 0.25 nM DNA, 0.12 μg/μL protein, 20° C.; competitor 100 nM
Description: First, two plasmids (pAW49, pAW79) were generated. pAW49 contains YY1 binding sites separated by ˜3.5 kb of intervening DNA. pAW79 is identical except it contains filler DNA instead of the YY1 motifs. The intervening DNA was chosen based on looking at YY1 ChIP-seq and motif distribution in mES cells to identify regions that lacked YY1 occupancy and YY1 binding motifs. The YY1 binding motifs were chosen based on successful EMSAs (Sigova et al., 2015). Approximately 200 bp of sequence was added between the binding motifs and the termini in order to provide flexibility for the termini to ligate. The plasmid was built using Gibson assembly.
Next, a PCR was run using plasmid as a template to generate a linear piece of DNA (Table S5). This PCR product was PCR purified (Qiagen 28104) and then digested with BamHI (NEB R3136) and PCR purified. The BamHI digested template was used in the ligation assay.
The ligation assay was carried out as follows. Reactions were prepared on ice in 66 μL with the following components:
BSA control: 0.25 nM DNA, 1× T4 DNA ligase buffer (NEB B0202S), H2O, 0.12 μg/μL of BSA […]
Quantification was done using Image Lab version 5.2.1 (Bio-Rad Laboratories). First, band density of the starting product and ligation product were measured. Then the percent circularized was calculated: (ligation product)/(ligation product+starting band)*100. […]

YY1 = YY1 (Homo sapiens, UniProt P25490 P25490:1-414); test: EMSA; 20 fmol probe, 2 ug YY1, 5 mM MgCl2, 0.1 mM ZnCl2, poly dIdC, RT; abolished by 200-fold cold competitor; details: label: 5' biotin
Description: To generate the biotin labeled probe, 30-nucleotide-long 5' biotinylated single stranded oligonucleotides (IDT) were annealed in 10 mM Tris pH 7.5, 50 mM NaCl, and 1 mM EDTA at a 50 uM concentration. The same protocol was used to generate the cold competitor. The probe was serially diluted to a concentration of 10 fmol/4 and cold competitor to a concentration of 2 pmol/µL. 2 µL of diluted probe and cold competitor were used for each binding reaction for a final amount of 20 fmol labeled probe and 4 pmol cold competitor (200 fold excess) in each reaction.
Binding reactions were set-up in a 20 µL volume containing 1× Binding Buffer (10 mM Tris, 50 mM KCl, 1 mM DTT; pH 7.5), 2.5% Glycerol, 5 mM MgCl2, 50 ng/4 Poly dl dC, 0.05% Np-40, 0.1 mM ZnCl2, 10 mM Hepes, and 2 ug of recombinant YY1 protein. Binding reactions were pre-incubated for 20 mins at room temperature with or without the cold competitor. Labeled probe was then added to binding reactions and incubated for 80 minutes at room temperature. […] The DNA was then crosslinked to the membrane by placing the membrane on a Dark Reader Transilluminator for 15 mins. The membrane was allowed to air dry at room temperature overnight and chemiluminescence detected the following day. […]

T1 sequence (Q00899 with tags, fused parts or gaps): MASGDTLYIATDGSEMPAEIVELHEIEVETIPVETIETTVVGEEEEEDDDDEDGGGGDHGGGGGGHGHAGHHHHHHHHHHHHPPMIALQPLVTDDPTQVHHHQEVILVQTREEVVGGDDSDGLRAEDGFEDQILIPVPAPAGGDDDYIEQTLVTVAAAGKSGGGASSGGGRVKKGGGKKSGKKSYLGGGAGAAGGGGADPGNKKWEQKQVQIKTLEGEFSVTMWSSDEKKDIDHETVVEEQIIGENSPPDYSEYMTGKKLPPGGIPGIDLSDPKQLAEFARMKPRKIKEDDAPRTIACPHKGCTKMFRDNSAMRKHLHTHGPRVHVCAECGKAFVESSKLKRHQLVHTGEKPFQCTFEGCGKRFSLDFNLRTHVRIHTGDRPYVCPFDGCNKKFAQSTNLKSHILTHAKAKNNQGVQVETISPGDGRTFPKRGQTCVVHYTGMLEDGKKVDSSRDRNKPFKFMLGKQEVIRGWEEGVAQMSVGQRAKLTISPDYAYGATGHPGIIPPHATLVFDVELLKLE
T1 sequence (Q8C7D2 whole entry): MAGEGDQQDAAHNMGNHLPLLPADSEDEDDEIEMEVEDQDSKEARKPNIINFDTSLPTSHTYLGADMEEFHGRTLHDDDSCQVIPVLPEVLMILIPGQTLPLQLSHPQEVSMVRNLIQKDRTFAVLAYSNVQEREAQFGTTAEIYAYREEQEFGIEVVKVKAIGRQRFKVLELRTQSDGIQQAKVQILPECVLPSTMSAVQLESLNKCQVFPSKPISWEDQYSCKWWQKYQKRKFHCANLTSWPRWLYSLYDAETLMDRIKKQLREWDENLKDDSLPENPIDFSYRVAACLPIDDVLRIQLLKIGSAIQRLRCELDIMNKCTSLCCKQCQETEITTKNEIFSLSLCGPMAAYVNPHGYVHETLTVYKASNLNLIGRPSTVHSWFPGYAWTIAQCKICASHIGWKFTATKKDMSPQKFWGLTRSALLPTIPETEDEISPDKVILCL
T1 sequence (Q3U1J4 whole entry partner): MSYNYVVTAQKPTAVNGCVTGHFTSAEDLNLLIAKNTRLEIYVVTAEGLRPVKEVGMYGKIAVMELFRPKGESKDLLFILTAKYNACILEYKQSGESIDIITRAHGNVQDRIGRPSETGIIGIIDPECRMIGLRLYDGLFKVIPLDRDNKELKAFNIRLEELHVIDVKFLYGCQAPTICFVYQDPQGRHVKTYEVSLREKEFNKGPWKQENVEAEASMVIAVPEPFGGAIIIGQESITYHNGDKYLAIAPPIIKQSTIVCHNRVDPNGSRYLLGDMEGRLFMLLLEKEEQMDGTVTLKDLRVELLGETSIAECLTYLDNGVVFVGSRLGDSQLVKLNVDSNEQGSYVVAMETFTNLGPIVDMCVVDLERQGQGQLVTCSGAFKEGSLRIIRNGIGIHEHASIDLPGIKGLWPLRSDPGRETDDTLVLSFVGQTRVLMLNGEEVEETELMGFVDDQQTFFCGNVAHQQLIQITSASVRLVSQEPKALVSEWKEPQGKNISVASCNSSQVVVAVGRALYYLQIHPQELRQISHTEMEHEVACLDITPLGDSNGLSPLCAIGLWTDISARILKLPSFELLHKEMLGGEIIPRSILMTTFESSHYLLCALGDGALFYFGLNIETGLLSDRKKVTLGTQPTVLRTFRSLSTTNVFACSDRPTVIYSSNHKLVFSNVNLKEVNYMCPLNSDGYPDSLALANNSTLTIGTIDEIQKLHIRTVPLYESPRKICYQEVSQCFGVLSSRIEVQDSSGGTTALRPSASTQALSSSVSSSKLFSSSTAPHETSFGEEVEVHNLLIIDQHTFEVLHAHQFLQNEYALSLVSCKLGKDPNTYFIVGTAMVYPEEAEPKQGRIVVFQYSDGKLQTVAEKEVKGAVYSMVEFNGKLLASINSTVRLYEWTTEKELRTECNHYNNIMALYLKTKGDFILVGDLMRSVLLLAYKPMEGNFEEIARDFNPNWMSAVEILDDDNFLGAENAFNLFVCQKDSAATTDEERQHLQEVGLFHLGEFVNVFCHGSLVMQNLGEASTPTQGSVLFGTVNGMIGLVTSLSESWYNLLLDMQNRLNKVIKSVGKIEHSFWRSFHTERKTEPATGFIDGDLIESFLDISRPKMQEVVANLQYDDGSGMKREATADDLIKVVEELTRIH
Sequence of YY1 (P25490 whole entry, one chain of several): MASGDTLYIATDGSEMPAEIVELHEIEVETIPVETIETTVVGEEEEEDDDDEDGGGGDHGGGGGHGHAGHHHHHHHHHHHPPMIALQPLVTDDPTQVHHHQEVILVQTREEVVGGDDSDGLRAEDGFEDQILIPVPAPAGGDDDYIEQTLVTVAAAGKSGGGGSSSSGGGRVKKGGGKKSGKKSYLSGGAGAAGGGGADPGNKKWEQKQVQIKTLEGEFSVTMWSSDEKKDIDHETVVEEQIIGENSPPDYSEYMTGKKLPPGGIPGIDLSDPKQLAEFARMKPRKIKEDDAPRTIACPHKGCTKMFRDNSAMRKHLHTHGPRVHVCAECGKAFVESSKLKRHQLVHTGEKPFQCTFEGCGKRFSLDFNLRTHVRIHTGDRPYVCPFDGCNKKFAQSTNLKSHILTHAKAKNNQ
Sequence of HA-tagged YY1 (P25490 whole entry): as the sequence (P25490 whole entry, one chain of several) above

In the case of CC[C@H](C(=O)N1CCCC[C@H]1C(=O)O[C@H](CCc1ccc(OC)c(OC)c1)c1ccccc1OCC(=O)NCCCCCCCCNc1ccc2c(c1)C(=O)N(C1CCC(=O)NC1=O)C2=O)c1cc(OC)c(OC)c(OC)c1 (stereo partly drawn) [dTAG-47, (2S)-(1R)-3-(3,4-dimethoxyphenyl)-1-(2-(2-((8-((2-(2,6-dioxopiperidin-3-yl)-1,3-dioxoisoindolin-5-yl)amino)octyl)amino)-2-oxoethoxy)phenyl)propyl 1-((S)-2-(3,4,5-trimethoxyphenyl)butanoyl)piperidine-2-carboxylate], the YY1 protein degradation ([1]; FKBP degron tag knocked-in to both alleles of Yy1, mES cells, 24 hours treatment) is reported as “rapid proteasome-mediated degradation”, the “washout time allowing recovery of YY1 protein levels” value ([1]; after 24 hours treatment at 500 nM, drug withdrawal) is reported as 5 days and the “enhancer-promoter interactions after YY1 degradation (H3K27ac HiChIP)” value ([2]; treated) is reported as “loss in enhancer-promoter interactions”. The “enhancer-promoter interactions after washout and recovery of YY1 levels (H3K27ac HiChIP)” value ([2]; washout) was “substantial increase in enhancer-promoter interactions”.

Molecule FLAG-tagged YY1 has a reduction in the amount of co-immunoprecipitated YY1 partner protein after RNase A treatment (HA-tagged YY1) of 60%.

In the case of “bovine serum albumin (BSA): control protein in the DNA circularization assay”, the “rate of DNA circularization” value [3] is reported as “did not increase the rate of DNA ligation”.

B1: YY1 EMSA probe (dsDNA)
DNA 1: TCGCTCCCCGGCCATCTTGGCGGCTGGTGT
DNA 2: ACACCAGCCGCCAAGATGGCCGGGGAGCGA
B1: binds (YY1).

B2: competing 200 base pair DNA fragment: 200 base pair DNA fragment containing the YY1 consensus binding sequence, SEQ ID NO: 28 (nucleic acid)
DNA: GAGCAACAACAACAACGAACCGGTTCGACCTCCCCGGCCATCTTTCGACCTCCCCGGCCATCTTTCGACCTCCCCGGCCATCTTTCGACCTCCCCGGCCATCTTTCGACCTCCCCGGCCATCTTTCGACCTCCCCGGCCATCTTTCGACCTCCCCGGCCATCTTTCGACCTCCCGTCGACAGAGGCAGCAAAAGCCAGA
modifications: competitor DNA
For B2, the “rate of DNA circularization” value [3] was “abrogated circularization”.
